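Growth conditions: 96-well plates. Treatment: test compound, 48 hours, 5 concentrations. Analysis: linear interpolation between bracketing concentrations; unreached endpoints set to highest concentration. GI50 is the concentration that inhibits growth by half.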 Activity calls are given as the source filed them. No stated cut-off is given here; in the data, active = GI50 up to about 1.1 µM and inactive = higher.

The source of these data is ChEMBL document CHEMBL1201862, “PubChem BioAssay data set” (2004).

What all share (test): inhibition of tumour cell growth, NCI panel, 48 h
Experiment [1] deals with CCRF-CEM.
Experiment [2] relates to HL-60.
Experiment [3] deals with MDA-N.
For experiment [4], the system named is SK-MEL-5.
The test system of experiment [5] is T47D.
For experiment [6], the system named is DU-145.
The test system of experiment [7] is NCI-H522.
Experiment [8] has as its system TK-10.
Experiment [9] deals with LOX IMVI.
The test system of experiment [10] is CAKI-1.
Experiment [11] relates to OVCAR-3.
Experiment [12] relates to KM12.
Experiment [13] relates to SN12C.
Experiment [14] concerns HOP-62.
The subject of experiment [15] is MOLT-4.
Experiment [16] deals with PC-3.

Regarding `CC(=O)/C=C/C=C(\C)CC/C=C(\C)CC(C)C`, the GI50 in experiment [1] is 13.5 µM (inactive); in experiment [2], 13 µM (inactive); in experiment [3], 30.2 µM (inactive); in experiment [4], 18.5 µM (inactive); in experiment [5], 14.6 µM (inactive); in [6] it was 58.6 µM (inactive). The GI50 in experiment [7] is 17.6 µM (inactive); in experiment [8], > 100 µM (inactive); in experiment [9], 18.3 µM (inactive); in experiment [10], 40.8 µM (inactive); in experiment [11] it was 26.4 µM (inactive); in experiment [12], 27.7 µM (inactive). The GI50 in experiment [13] was 31.4 µM (inactive); in experiment [14] it was 41.3 µM (inactive); in experiment [15], 18.1 µM (inactive); in experiment [16], 38.2 µM (inactive).

Consider `CC(/C=N/N(C)C1=NCCCN1)=N/N(C)C1=NCCCN1`, for which the GI50 in experiment [1], in experiment [2], in experiment [3], in experiment [4], in [5] and in experiment [6] was > 100 µM (inactive) throughout. The GI50 in experiment [7], in experiment [8], in experiment [9], in experiment [10], in [11] and in experiment [12] was > 100 µM (inactive) throughout. Besides, the GI50 in experiment [13], in experiment [14], in [15] and in [16] was > 100 µM (inactive) in each case.

As for `CC1=NN(c2ccccc2)C(=O)C1/N=N/c1ccc([As](=O)(O)O)c(O)c1` (centres undefined), the GI50 in experiment [1] is 25.4 µM (inactive); in [2], 87.1 µM (inactive); in experiment [3], > 100 µM (inactive); in experiment [4], > 100 µM (inactive); in experiment [5], 60.8 µM (inactive); in experiment [6] it was > 100 µM (inactive). In addition, the GI50 in experiment [7], in experiment [8], in experiment [9], in experiment [10], in experiment [11] and in experiment [12] was > 100 µM (inactive) in each case. Moreover, the GI50 in experiment [13], in experiment [14], in [15] and in experiment [16] was > 100 µM (inactive) in each case.

As for `CCOC1SC(SC)=NN1C(=O)C(OC(C)=O)C(OC(C)=O)C(OC(C)=O)C(OC(C)=O)C(=O)N1N=C(SC)SC1OCC` (centres undefined), the GI50 in experiment [1], in experiment [2], in experiment [3], in [4], in experiment [5] and in experiment [6] was > 100 µM (inactive) throughout. Moreover, the GI50 in experiment [7], in [8], in experiment [9], in experiment [10], in [11] and in experiment [12] was > 100 µM (inactive) each time. Further, the GI50 in experiment [13], in experiment [14], in experiment [15] and in [16] was > 100 µM (inactive) each time.

On to `O=C(Cc1ccc(OCc2cccc(Cl)c2)cc1)NO`, for which the GI50 is 6.76 µM (inactive) in experiment [1]; 12.1 µM (inactive) in experiment [2]; 58.9 µM (inactive) in [3]; 33.3 µM (inactive) in [4]; 5.74 µM (inactive) in experiment [5]; 21.5 µM (inactive) in [6]. In addition, the GI50 is 15.8 µM (inactive) in experiment [7]; 34.8 µM (inactive) in [8]; 11.7 µM (inactive) in experiment [9]; 19.9 µM (inactive) in experiment [10]; 22.2 µM (inactive) in [11]; 27.6 µM (inactive) in experiment [12]. Also, the GI50 in experiment [13] was 27.6 µM (inactive); in experiment [14], 24.6 µM (inactive); in [15], 2.98 µM (inactive); in experiment [16], 9.18 µM (inactive).

Consider `C(=N\N=C1NCCN1)/c1ccc2ccccc2c1`, for which the GI50 in experiment [1] was 8.59 µM (inactive); in experiment [2], 8.67 µM (inactive); in experiment [3] it was 14.1 µM (inactive); in experiment [4], 13.2 µM (inactive); in experiment [5], 23.1 µM (inactive); in experiment [6], 31.2 µM (inactive). In addition, the GI50 is 13.1 µM (inactive) in experiment [7]; 12.4 µM (inactive) in [8]; 12.7 µM (inactive) in experiment [9]; 9.02 µM (inactive) in [10]; 16.1 µM (inactive) in experiment [11]; 14.9 µM (inactive) in [12]. Moreover, the GI50 in [13] is 16.9 µM (inactive); in experiment [14], 16.1 µM (inactive); in experiment [15], 10.2 µM (inactive); in experiment [16], 14.3 µM (inactive).

As for `CC(=O)OCC12C(OC(C)=O)C(=O)C3C(OC(C)=O)C14OC3(C)COC(=O)c1cccnc1C(C)C(C)C(=O)OC(C(OC(C)=O)C2OC(C)=O)C4(C)O` (centres undefined), the GI50 in experiment [1], in [2], in experiment [3], in experiment [4], in [5] and in experiment [6] was > 100 µM (inactive) throughout. Also, the GI50 in experiment [7], in experiment [8], in experiment [9], in experiment [10], in experiment [11] and in experiment [12] was > 100 µM (inactive) each time. Moreover, the GI50 in experiment [13] is > 100 µM (inactive); in [14] it was > 100 µM (inactive); in experiment [15] it was 52.2 µM (inactive); in experiment [16] it was > 100 µM (inactive).

In the case of `CCCCCCCCCCCCCCC[C@@H](O)C[N+](C)(C)CCO`, the GI50 in [1] was 1.25 µM (inactive); in [2] it was 0.149 µM (active); in experiment [3] it was 5.98 µM (inactive); in experiment [4] it was 2.72 µM (inactive); in experiment [5] it was 6.82 µM (inactive); in experiment [6], 7.66 µM (inactive). Moreover, the GI50 in experiment [7] is 1.42 µM (inactive); in experiment [8] it was 1.31 µM (inactive); in [9] it was 2.07 µM (inactive); in experiment [10] it was 0.977 µM (active); in experiment [11], 4.42 µM (inactive); in [12] it was 0.841 µM (active). The GI50 is 5.61 µM (inactive) in experiment [13], 2.88 µM (inactive) in experiment [14], 2.17 µM (inactive) in [15] and 1.06 µM (active) in [16].

For `Cc1ccc(SCC(CF)OC(C)n2cnc3c(Cl)nc(N)nc32)cc1` (centres undefined), the GI50 in [1] was 81.1 µM (inactive); in experiment [2], 22.7 µM (inactive); in experiment [3] it was 89.1 µM (inactive); in experiment [4], 17.3 µM (inactive); in experiment [5] it was 54.6 µM (inactive); in [6], > 100 µM (inactive). Further, the GI50 was 18.7 µM (inactive) in experiment [7]; > 100 µM (inactive) in [8]; 70.8 µM (inactive) in [9]; 84.7 µM (inactive) in experiment [10]; 85.7 µM (inactive) in experiment [11]; > 100 µM (inactive) in experiment [12]. The GI50 was 43.3 µM (inactive) in experiment [13], > 100 µM (inactive) in experiment [14], 25.8 µM (inactive) in experiment [15] and 90.6 µM (inactive) in experiment [16].
